Measurements published in ChEMBL document CHEMBL1914410, “Discovery of a series of potent and selective human H4 antagonists using ligand efficiency and libraries to explore structure-activity relationship (SAR)” (Bioorg Med Chem Lett, 2011).
Values belong to the compound of their own block, whether it stands above or below them.

Experiments:
[1] = biological target: T1, Histamine H4 receptor (Homo sapiens, UniProt Q9H3N8); experiment: Displacement of [3H]histamine from human histamine H4 receptor expressed in CHO cells after 90 mins by scintillation counting technique; assay type: cell-based
[2] = biological target: T1, Histamine H4 receptor; experiment: Antagonist activity at human histamine H4 receptor by functional assay
[3] = biological target: T2, Histamine H3 receptor (Homo sapiens, UniProt Q9Y5N1); experiment: Antagonist activity at histamine H3 receptor; assay type: functional
[4] = biological target: Histamine H1 receptor (Homo sapiens, UniProt P35367); experiment: Antagonist activity at histamine H1 receptor; assay type: functional
[5] = biological target: Histamine H2 receptor (Homo sapiens, UniProt P25021); experiment: Antagonist activity at histamine H2 receptor; assay type: functional
[6] = Distribution coefficient, log D of the compound at pH 7.4; assay type: physicochemical; details: octanol/water
[7] = Metabolic stability in human liver microsomes; assay type: ADME, Microsome; details: read-out: Stability
[8] = Metabolic stability in rat liver microsomes; assay type: ADME, Microsome; details: read-out: Stability
[9] = biological target: T2, Histamine H3 receptor; experiment: Binding affinity to histamine H3 receptor
[10] = biological target: T1, Histamine H4 receptor; experiment: Antagonist activity at human histamine H4 receptor at 15 uM by functional assay; design: scale not given: the % may be the effect or the level left
[11] = biological target: T2, Histamine H3 receptor; experiment: Binding affinity to human histamine H3 receptor
[12] = test system: Liver microsomes; experiment: Intrinsic clearance in rat liver microsomes; assay type: ADME, Microsome

T2 sequence (Q9Y5N1 whole entry): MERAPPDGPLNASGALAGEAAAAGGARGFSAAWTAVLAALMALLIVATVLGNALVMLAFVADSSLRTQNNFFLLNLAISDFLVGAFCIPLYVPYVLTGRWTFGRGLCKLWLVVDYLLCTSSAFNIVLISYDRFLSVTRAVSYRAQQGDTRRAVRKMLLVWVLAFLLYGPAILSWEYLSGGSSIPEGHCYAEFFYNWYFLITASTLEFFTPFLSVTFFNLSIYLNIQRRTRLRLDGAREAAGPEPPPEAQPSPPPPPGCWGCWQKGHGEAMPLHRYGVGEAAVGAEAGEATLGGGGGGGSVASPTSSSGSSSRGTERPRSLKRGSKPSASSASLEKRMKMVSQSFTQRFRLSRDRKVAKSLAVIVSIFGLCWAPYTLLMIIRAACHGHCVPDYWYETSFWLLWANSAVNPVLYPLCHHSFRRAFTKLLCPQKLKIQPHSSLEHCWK
Sequence of Histamine H2 receptor (P25021 whole entry): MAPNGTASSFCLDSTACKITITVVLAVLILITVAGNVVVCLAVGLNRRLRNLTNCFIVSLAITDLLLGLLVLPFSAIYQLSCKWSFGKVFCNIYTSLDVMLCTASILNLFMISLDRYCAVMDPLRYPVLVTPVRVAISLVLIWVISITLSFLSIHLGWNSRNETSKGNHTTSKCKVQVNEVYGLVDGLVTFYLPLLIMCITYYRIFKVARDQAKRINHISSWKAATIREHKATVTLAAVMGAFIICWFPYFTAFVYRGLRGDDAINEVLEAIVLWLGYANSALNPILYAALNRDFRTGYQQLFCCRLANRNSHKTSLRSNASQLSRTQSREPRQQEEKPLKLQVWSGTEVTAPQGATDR
Sequence of Histamine H1 receptor (P35367 whole entry): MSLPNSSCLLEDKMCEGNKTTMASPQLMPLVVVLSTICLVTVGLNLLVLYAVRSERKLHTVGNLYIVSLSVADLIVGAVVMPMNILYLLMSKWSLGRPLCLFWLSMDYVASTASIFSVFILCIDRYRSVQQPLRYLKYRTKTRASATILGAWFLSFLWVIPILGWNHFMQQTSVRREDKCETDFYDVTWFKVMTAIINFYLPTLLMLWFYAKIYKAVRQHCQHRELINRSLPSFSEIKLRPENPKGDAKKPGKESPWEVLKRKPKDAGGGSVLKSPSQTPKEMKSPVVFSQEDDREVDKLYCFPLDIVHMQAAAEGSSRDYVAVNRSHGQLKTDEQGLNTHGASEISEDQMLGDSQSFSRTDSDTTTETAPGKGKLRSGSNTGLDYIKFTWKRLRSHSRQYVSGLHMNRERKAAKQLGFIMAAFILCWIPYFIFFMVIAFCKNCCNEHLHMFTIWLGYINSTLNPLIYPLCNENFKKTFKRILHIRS

Structure (SMILES): CN1CC[C@H](Nc2cc(NCCC(C)(C)C)ncn2)C1
Ki [1]: 593 nM

Structure (SMILES): CC(C)(C)CCNc1cc(N[C@H]2CCNC2)ncn1
Ki [2]: 572 nM | Ki [3]: 8220 nM | Ki [4]: > 40000 nM | Ki [5]: 8820 nM | logD [6]: 0.6

Structure (SMILES): Cc1ccc(C#N)c(N2CC3CN(C)CC3C2)n1 (stereo not given)
logD [6]: -0.86 | Ki [1]: 930 nM

Structure (SMILES): CC(C)(C)CCNc1cc(NC2CCN(Cc3ccc(CO)o3)C2)ncn1 (stereo not given)
Activity [10]: 73% | Ki [1]: 2110 nM

Structure (SMILES): CN(C)[C@@H]1CCN(c2cc(NCC(C)(C)C)ncn2)C1
logD [6]: 1.09 | Ki [11]: 54 nM

Structure (SMILES): COc1ccccc1Cn1ccc(NCCc2cnc[nH]2)nc1=O
Ki [2]: > 2000 nM | Activity [10]: 65% | Ki [1]: 1600 nM

Structure (SMILES): COCc1ccc(CN2CC[C@H](Nc3cc(NCCC(C)(C)C)ncn3)C2)o1
Ki ([1]; cho): 20000 nM

Structure (SMILES): CN1CCN(c2cc(NCC(C)(C)C)ncn2)CC1
logD [6]: 1.75 | Ki [11]: 825 nM

Structure (SMILES): CC(C)(C)CCNc1cc(N[C@@H]2CCNC2)ncn1
Ki [3]: 13600 nM

Structure (SMILES): CN1CCN(c2cnc3ccccc3n2)CC1
logD [6]: 1.76 | Ki [1]: 1060 nM

Structure (SMILES): CN(C)CCNc1cc(NCC2CC2)ncn1
CL [12]: 143 µL/min

Second part, the compound after the results:

Ki [2]: 39.6 nM | Ki [1]: 47.7 nM
Structure (SMILES): CN1CCN(C(=O)c2nc3cc(Cl)ccc3[nH]2)CC1

Ki [2]: 37 nM | Ki [4]: > 10000 nM | Ki [5]: 3560 nM | logD [6]: 2.6 | microsomal CLint [7]: 16 µL/min/mg | microsomal CLint [8]: 147 µL/min/mg | Ki [9]: 646 nM
Structure (SMILES): CN1CCN(c2cc(NCCC(C)(C)C)ncn2)CC1

Ki ([1]; cho): 20000 nM
Structure (SMILES): CC(C)(C)CCNc1cc(N[C@H]2CCN(Cc3cccc(F)c3O)C2)ncn1

Ki [2]: > 2000 nM | Activity [10]: 60% | Ki [3]: 2500 nM | Ki [1]: 3240 nM
Structure (SMILES): COc1cccc(C(O)(COc2ccccc2C)CN2CCN(C)CC2)c1 (stereo not given)

Ki [1]: 212 nM
Structure (SMILES): CN1CCN(c2cc(NC3Cc4ccccc4C3)ncn2)CC1

logD [6]: 0.96
Structure (SMILES): CN1CCCN(c2cc(NCC(C)(C)C)ncn2)CC1

Activity [10]: 57% | Ki [1]: 34900 nM
Structure (SMILES): CN1CCN(c2cc(C(=O)NCc3cccc(C(F)(F)F)c3)ncn2)CC1

logD [6]: 1.4
Structure (SMILES): CC(C)(C)CCNc1cc(N2CCNCC2)ncn1

logD [6]: 3.84 | Ki [1]: 601 nM
Structure (SMILES): CC(C)(C)CCNc1cc(N2CCN(C3CCCCC3)CC2)ncn1

Ki [1]: 207 nM
Structure (SMILES): CN1CCN(c2cc(NCc3ccccc3)ncn2)CC1

Ki [1]: 860 nM
Structure (SMILES): CN1CCN(c2cc(N3[C@@H]4CCC[C@@H]3C4)ncn2)CC1
